Where “and” joins values, the source holds several entries; their conditions need not be identical. Identical values can stand only once.
Tested on: absolute ethanol-induced ulcer
Experiment: absolute ethanol-induced ulcer model (anti-ulcerogenic activity)
Type: in vivo, Wistar rats
Details: rats, oral, ranitidine 100 mg/kg, TAE 1000 mg/kg, 1 and 2 50 mg/kg; for score (lesion score): scoring system 0-5; for score (lesion score) / No. of ulcers / ulcer index: n = 6; for No. of ulcers / ulcer index: mean ± SD
Procedure: Evaluation of the anti-ulcerogenic activity was carried out using absolute ethanol-induced ulcer model as described by Muthu et al. Int. J. Pharm. Pharm. Sci. 2013, 5, Suppl1, 269-272.
About 30 Wistar rats were used, they divided into 5 groups each of 6 rats. Group 1 received the vehicle and served as control group, group 2 received ranitidine (100 mg/kg) and served as standard group, groups 3 received the total alcohol extract of the plant under investigation at a dose of 1000 mg/kg. groups 4 and 5 received the isolated compounds 1 and 2 at dose 50 mg/kg respectively.
Rats of all groups were fasted for 24 h then all medications were administered orally. One hour after treatment, the animals received an oral dose of absolute ethanol (1 ml/200 g) and then sacrificed one hour later, by ether inhalation, the stomachs were rapidly removed, opened along their greater curvature and gently rinsed under running tap water.
Number of lesions in the glandular part of the stomach were measured under an illuminated magnifying microscope (10×). Long lesions were counted and their lengths were measured. Petechial lesions were counted, and then each five petechial lesions were taken as 1 mm of ulcer.
The lesion scores: the mucosal lesions were quantified by the scoring system (0-5) 0=no damage, 1=Local edema and inflammation without ulcers; 2=One ulcer without inflammation; 3=one to two ulcers with inflammation & lesion diameter <1 cm; 4=More than two ulcers with lesion diameter 1-2 cm; 5=Sever ulceration with lesion diameter >2 cm.
Ulcer index To calculate the ulcer index (mm), the sum of the total length of long ulcers and petechial lesions in each group of rats was divided by its number. The curative ratio was determined according to the formula: % Protection of control ulcer=Control UI−Test UI/Control UI×100

## CCCCCCCCCCCCCCCCCCCCCCCC(=O)O [Compound 1, tetracosanoic acid]
  score (lesion score): 1
  % protection of control ulcer: 80%
  No. of ulcers: 2 ± 2.74
  ulcer index: 2.6 ± 3.58 mm

## CCCCOC(=O)C(O)CCC(=O)O (stereo not shown) [Compound 2, 4-hydroxy-5-n-butoxy-5-oxopentanoic acid]
  score (lesion score): 2
  % protection of control ulcer: 55.5% and 55.3%
  No. of ulcers: 3.6± 2.97
  ulcer index: 5.8 ± 3.42 mm

## CNC(=C[N+](=O)[O-])NCCSCc1ccc(CN(C)C)o1 [Ranitidine, ranitidine, reference compound]
  score (lesion score): 2.2
  % protection of control ulcer: 46.2%
  No. of ulcers: 7.2 ± 0.84
  ulcer index: 7 ± 1.58 mm
Listed as ranitidine
  % protection of control ulcer: 46.2% and 44.6%
